# Measurements published in ChEMBL document CHEMBL1134218, “Sialidase inhibitors related to zanamivir. Further SAR studies of 4-amino-4H-pyran-2-carboxylic acid-6-propylamides” (Bioorg Med Chem Lett, 2001).
# Key:
# Influenza B virus = assay: Concentration required for reduction of plaque against influenza B; type: functional, organism-based, unidentified influenza virus
# Influenza A virus = assay: Concentration required for reduction of plaque against influenza A; type: functional, organism-based, unidentified influenza virus
# [1] = Influenza B virus, read-out: IC50
# [2] = Influenza A virus, read-out: IC50
SMILES,IC50 (Influenza B virus; [1]) [ng/mL],IC50 (Influenza A virus; [2]) [ng/mL],IC50 (Influenza B virus) [ng/mL],IC50 (Influenza A virus) [ng/mL]
CCCN(CCc1ccccc1)C(=O)[C@@H]1OC(C(=O)O)=C[C@H](O)[C@H]1NC(C)=O,> 100000,5,–,–
CCCN(CCC)C(=O)[C@@H]1OC(C(=O)O)=C[C@H](N)[C@H]1NC(C)=O,700,2,–,–
CCCN(CCC)C(=O)[C@@H]1OC(C(=O)O)=C[C@H](N)[C@H]1NC(=O)CC,3000,0.2,–,–
CCCN(CCc1ccccc1)C(=O)[C@@H]1OC(C(=O)O)=C[C@H](N)[C@H]1NC(=O)C(F)(F)F,56,4,–,–
CCCN(CCC)C(=O)[C@@H]1OC(C(=O)O)=C[C@H](N)[C@H]1NC(=O)C(F)(F)F,300,0.01,–,–
CCCN(CCc1ccccc1)C(=O)[C@@H]1OC(C(=O)O)=C[C@H](N)[C@H]1NC(C)=O,280,30,300,30
CC(=O)N[C@H]1[C@H]([C@H](O)[C@H](O)CO)OC(C(=O)O)=C[C@@H]1NC(=N)N [ZANAMIVIR],2,5,–,–
